# In ChEMBL document CHEMBL4130458, “Oxidation of the Meroterpenoid (-)-Terreumol C from the Mushroom Tricholoma terreum: Discovery of Cytotoxic Analogues” (J Nat Prod, 2017):
# Active and inactive are the calls of the source. The calls are words filed in the database; no cut-off is given here.
# Assays:
# Staphylococcus aureus [1] = assay: Antimicrobial activity against methicillin-resistant Staphylococcus aureus DSM 11822 up to 100 uM after 18 hrs by serial dilution method; assay type: functional, organism-based
# Escherichia coli = assay: Antimicrobial activity against Escherichia coli DSM 1116 up to 100 uM after 18 hrs by serial dilution method; assay type: functional, organism-based
# L929 = assay: Antiproliferative activity against mouse L929 cells after 5 days by WST-1 assay; assay type: ADME, cell-based; conditions: L929, 120 h
# Pseudomonas aeruginosa = assay: Antimicrobial activity against Pseudomonas aeruginosa PA7 DSM 24068 up to 100 uM after 18 hrs by serial dilution method; assay type: functional, organism-based
# [2] = Antiproliferative activity against human FS4-LTM cells after 24 hrs by WST-1 assay; assay type: ADME, cell-based
# Staphylococcus aureus [3] = assay: Antimicrobial activity against methicillin-resistant Staphylococcus aureus isolate RKI 11-02670 up to 100 uM after 18 hrs by serial dilution method; assay type: functional, organism-based
# Klebsiella pneumoniae = assay: Antimicrobial activity against Klebsiella pneumoniae DSM 11678 up to 100 uM after 18 hrs by serial dilution method; assay type: functional, organism-based
# Candida albicans = assay: Antimicrobial activity against Candida albicans up to 100 uM after 18 hrs by serial dilution method; assay type: functional, organism-based
# Acinetobacter baumannii = assay: Antimicrobial activity against Acinetobacter baumannii DSM 30007 up to 100 uM after 18 hrs by serial dilution method; assay type: functional, organism-based
# Enterococcus faecium = assay: Antimicrobial activity against Enterococcus faecium DSM 20477 up to 100 uM after 18 hrs by serial dilution method; assay type: functional, organism-based
# KB 3-1 = assay: Antiproliferative activity against human KB-3-1 cells after 5 days by WST-1 assay; assay type: functional, cell-based; conditions: KB 3-1, 120 h
# MCF7 = assay: Antiproliferative activity against human MCF7 cells after 5 days by WST-1 assay; assay type: functional, cell-based; conditions: MCF7, 120 h
# Staphylococcus aureus [4] = assay: Antimicrobial activity against methicillin-resistant Staphylococcus aureus up to 100 uM after 18 hrs by serial dilution method; assay type: functional, organism-based
# Staphylococcus aureus [5] = assay: Antimicrobial activity against methicillin-resistant Staphylococcus aureus ICB 25701 up to 100 uM after 18 hrs by serial dilution method; assay type: functional, organism-based
# Staphylococcus aureus [6] = assay: Antimicrobial activity against methicillin-resistant Staphylococcus aureus isolate RKI 11-02670 after 18 hrs by serial dilution method; assay type: functional, organism-based; conditions: isolate RKI 11-02670, 18 h
# Staphylococcus aureus [7] = assay: Growth promoting activity against methicillin-resistant Staphylococcus aureus at 50 uM after 18 hrs by serial dilution method; assay type: organism-based; conditions: in vivo
Structure (SMILES),Activity (Staphylococcus aureus [1]),Activity (Escherichia coli),IC50 (L929) [µM],Activity (Pseudomonas aeruginosa),IC50 [2] [µM],Activity (Staphylococcus aureus [3]),Activity (Klebsiella pneumoniae),Activity (Candida albicans),Activity (Acinetobacter baumannii),Activity (Enterococcus faecium),IC50 (KB 3-1) [µM],IC50 (MCF7) [µM],Activity (Staphylococcus aureus [4]),Activity (Staphylococcus aureus [5]),EC50 (Staphylococcus aureus [6]) [µM],MIC (Staphylococcus aureus [6]) [µg/mL],Activity (Staphylococcus aureus [7]) [%]
COc1cc(O)c2c(c1O)[C@@H](O)/C(C)=C\CC[C@@]1(C)O[C@@H]1C2=O,inactive,inactive,4,inactive,29,inactive,inactive,inactive,inactive,inactive,4.1,6.2,inactive,inactive,,,
C=C1Cc2c(O)c(OC)cc(O)c2C(=O)[C@H]2O[C@]2(C)CC[C@H]1Br,inactive,inactive,2.5,inactive,14,inactive,inactive,inactive,inactive,inactive,4.5,11,inactive,inactive,,,
COc1cc(O)c2c(c1O)C/C(CO)=C\CC[C@@]1(C)O[C@@H]1C2=O,,,40,,42,,,,,,59,43,,,50,,
COc1cc(O)c2c(c1O)C/C(CBr)=C\CC[C@@]1(C)O[C@@H]1C2=O,,,10,,29,,,,,,34,32,,,22,13,
COC1=CC(=O)C2=C(C[C@]3(C)O[C@@H]3CC[C@@]3(C)O[C@@H]3C2=O)C1=O,inactive,inactive,18,inactive,31,inactive,inactive,inactive,inactive,inactive,20,24,inactive,inactive,,,
COc1cc(O)c2c(c1O)C[C@]1(C)O[C@@H]1CC[C@@]1(C)O[C@@H]1C2=O,inactive,inactive,9.9,inactive,29,inactive,inactive,inactive,inactive,inactive,9,17,inactive,inactive,,,> 25
COc1cc(O)c2c(c1O)C/C(C)=C\CC[C@@]1(C)O[C@@H]1C2=O,inactive,inactive,9.7,inactive,28,inactive,inactive,inactive,inactive,inactive,10,15,inactive,inactive,,,> 25
COc1cc(O)c2c(c1O)C[C@]1(C)O[C@@](C)(CC[C@H]1O)[C@H](O)C2=O,inactive,inactive,> 100,inactive,> 100,inactive,inactive,inactive,inactive,inactive,100,100,inactive,inactive,,,
COC1=CC(=O)C2=C(C/C(C)=C\CC[C@@]3(C)O[C@@H]3C2=O)C1=O,,,13,,28,,,,,,14,27,,,64,,
COc1cc(O)c2c(c1O)C/C(C(OC(C)=O)OC(C)=O)=C\CC[C@@]1(C)O[C@@H]1C2=O,,,2.7,,2.5,,,,,,5.6,5.6,,,54,,
